According to article PMC6283646, “Identification and binding mode of a novel Leishmania Trypanothione reductase inhibitor from high throughput screening” (PLoS Neglected Tropical Diseases, 2018):
Like-named read-outs stand apart in the source and are kept apart here.

Columns and labels:
[1] = tested on: L. infantum promastigotes; experiment: Inhibition of promastigote growth (MTT); type: cell-based; conditions: for IC50: Leishmania infantum, 72 h, MTT
Method: Promastigote (the extracellular stage of the Leishmania life cycle) growth inhibition was evaluated using L. infantum strain (MHOM/TN/80/IPT1). […] Promastigotes were grown in Schneider’s Drosophila medium (SIGMA) containing 10% Fetal Calf Serum (FCS) (GIBCO-BRL) and 2% gentamicin (50 mg/L) (Sigma) at 22°C. Parasites were adjusted to 1 × 10^6 parasites/mL, and 200 μL of suspension was seeded in triplicate in 96-well flat bottom microplates and incubated with varying concentrations of compound. […] Each experiment was done in triplicate for each drug concentration and two independent experiments were performed. After 72 h of incubation, 30 μL of MTT was added to each well and plates were further incubated for 2 h. The absorbance at 550 nm was measured with a 96-well scanner (DINEX Technologies, VA, USA). Anti-leishmanial activity per experimental point was expressed as mean percentage of inhibition with respect to vehicle treated parasites (0%). In addition, the promastigote vitality was followed by microscopic observation after 72 h. Data were analyzed and plotted by Prism (GraphPad, San Diego, USA).

L. infantum TR [2] = target: T1, L. infantum TR (Leishmania infantum, UniProt A4HSF7); experiment: DTNB absorbance-based TR assay; type: biochemical
T1 construct: made in house
T1 sequence (A4HSF7 entry or part of it): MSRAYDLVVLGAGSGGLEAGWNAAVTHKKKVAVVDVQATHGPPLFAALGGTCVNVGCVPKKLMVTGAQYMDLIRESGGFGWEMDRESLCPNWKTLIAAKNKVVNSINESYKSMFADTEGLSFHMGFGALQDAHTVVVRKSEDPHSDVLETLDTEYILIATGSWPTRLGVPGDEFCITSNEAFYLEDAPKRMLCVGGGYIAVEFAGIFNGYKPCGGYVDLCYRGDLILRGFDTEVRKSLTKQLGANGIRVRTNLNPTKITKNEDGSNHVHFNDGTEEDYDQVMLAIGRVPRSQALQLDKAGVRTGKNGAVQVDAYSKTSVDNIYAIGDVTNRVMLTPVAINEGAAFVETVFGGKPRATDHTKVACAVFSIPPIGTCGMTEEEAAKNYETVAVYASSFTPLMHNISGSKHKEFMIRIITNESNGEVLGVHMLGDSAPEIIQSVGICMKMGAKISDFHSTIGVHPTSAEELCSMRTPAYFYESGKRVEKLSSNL
From the text: L. infantum TR was cloned and purified as previously described.[9, 28] Bovine serum albumin (BSA), NADPH, auranofin, hGR, oxidized glutathione (GSSG) and DTNB were purchased from Sigma-Aldrich (St. Louis, MO); oxidized trypanothione (TS2) was purchased from Bachem (Bubendorf, Switzerland); the NADPH-Glo kit was purchased from Promega (Madison, WI, U.S.A.). Compounds, dissolved in DMSO, were transferred to 384-well white plates (Greiner Bio One, Frickenhausen, Germany) using the acoustic droplet ejection technology (ATS-100, EDC Biosystems, U.S.A.) to reach the desired final concentration. The TR enzymatic reaction was performed by addition of 0.1 nM TR, 12.5 μM NAPDH, 15 μM TS2 in 50 mM HEPES (pH 7.4), 40 mM NaCl, 0.01% BSA in a final volume of 15 μL. After 60 min of incubation at room temperature, an equal volume of NADPH-Glo reagent was added and the luminescent signal was acquired by an EnVision plate reader (PerkinElmer, Waltham, MA, U.S.A.). […] In addition, in order to make sure that the production of a reducing agent (i.e. T(SH)2) by the TR activity was not going to interfere with the assay, and in absence of T(SH)2 as purified reagent, the effect of DTT and GSH was tested on the NADPH-Glo reaction resulting in no interference at concentrations relevant for the current setup (S2 Fig). The hGR assay was performed by addition of 0.5 nM hGR, 10 μM GSSG, 20 μM NADPH in 50 mM HEPES (pH 7.4), 40 mM NaCl, 0.01% BSA in a final volume of 15 μL. After 30 min incubation at room temperature 15 μl of NADPH-Glo kit was added to reveal the signal. […] The absorbance signal (412 nm) was acquired 15 minutes post incubation at room temperature using the plate reader (Safire2, Tecan, Switzerland). Results were analyzed using Prism software (GraphPad, San Diego, CA, U.S.A.) and Vortex (Dotmatics, Bioshops Stortford, UK). Dose-response curves were fitted by four-parameter logistic regression.

L. infantum TR [3] = target: T1, L. infantum TR; experiment: Luminescence-based (NADPH-Glo) TR enzymatic assay; type: biochemical
From the text: (§1) L. infantum TR was cloned and purified as previously described.[9, 28] Bovine serum albumin (BSA), NADPH, auranofin, hGR, oxidized glutathione (GSSG) and DTNB were purchased from Sigma-Aldrich (St. Louis, MO); oxidized trypanothione (TS2) was purchased from Bachem (Bubendorf, Switzerland); the NADPH-Glo kit was purchased from Promega (Madison, WI, U.S.A.). Compounds, dissolved in DMSO, were transferred to 384-well white plates (Greiner Bio One, Frickenhausen, Germany) using the acoustic droplet ejection technology (ATS-100, EDC Biosystems, U.S.A.) to reach the desired final concentration. The TR enzymatic reaction was performed by addition of 0.1 nM TR, 12.5 μM NAPDH, 15 μM TS2 in 50 mM HEPES (pH 7.4), 40 mM NaCl, 0.01% BSA in a final volume of 15 μL. After 60 min of incubation at room temperature, an equal volume of NADPH-Glo reagent was added and the luminescent signal was acquired by an EnVision plate reader (PerkinElmer, Waltham, MA, U.S.A.). […] In addition, in order to make sure that the production of a reducing agent (i.e. T(SH)2) by the TR activity was not going to interfere with the assay, and in absence of T(SH)2 as purified reagent, the effect of DTT and GSH was tested on the NADPH-Glo reaction resulting in no interference at concentrations relevant for the current setup (S2 Fig). The hGR assay was performed by addition of 0.5 nM hGR, 10 μM GSSG, 20 μM NADPH in 50 mM HEPES (pH 7.4), 40 mM NaCl, 0.01% BSA in a final volume of 15 μL. After 30 min incubation at room temperature 15 μl of NADPH-Glo kit was added to reveal the signal. The 5,5′-dithiobis(2-nitrobenzoic acid) (DTNB) assay was performed using 2 nM TR, 100 μM NADPH, 4 μM TS2 and 200 μM DTNB in 40 mM HEPES (pH 7.4), 1 mM EDTA, 0.01% BSA and 0.05% tween-20 in a final volume of 50 μl. The absorbance signal (412 nm) was acquired 15 minutes post incubation at room temperature using the plate reader (Safire2, Tecan, Switzerland). Results were analyzed using Prism software (GraphPad, San Diego, CA, U.S.A.) and Vortex (Dotmatics, Bioshops Stortford, UK). Dose-response curves were fitted by four-parameter logistic regression.

[4] = target: T2, human glutathione reductase (hGR) (Homo sapiens, UniProt P00390); experiment: hGR assay (NADPH-Glo); type: biochemical; conditions: for IC50: n=3
T2 construct: purchased Sigma-Aldrich
T2 sequence (P00390 44-522): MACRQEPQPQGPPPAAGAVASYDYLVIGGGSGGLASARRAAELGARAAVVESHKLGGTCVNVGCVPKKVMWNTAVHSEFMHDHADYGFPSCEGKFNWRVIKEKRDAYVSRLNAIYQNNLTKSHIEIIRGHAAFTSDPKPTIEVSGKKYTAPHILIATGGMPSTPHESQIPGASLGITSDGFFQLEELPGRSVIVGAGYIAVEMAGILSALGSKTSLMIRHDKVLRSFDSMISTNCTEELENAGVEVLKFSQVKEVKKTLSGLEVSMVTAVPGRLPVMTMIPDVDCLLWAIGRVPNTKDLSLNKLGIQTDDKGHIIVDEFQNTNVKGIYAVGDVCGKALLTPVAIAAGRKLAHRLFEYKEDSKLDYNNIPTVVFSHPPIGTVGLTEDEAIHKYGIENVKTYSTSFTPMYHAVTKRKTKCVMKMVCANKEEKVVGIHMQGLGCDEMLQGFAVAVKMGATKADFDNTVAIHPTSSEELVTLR
From the text: as §1

TR [5] = target: T3, TR (Leishmania infantum, UniProt A4HSF7); experiment: Binding assay by SPR
T3 construct: made in house
T3 sequence (A4HSF7 1-491): as the sequence (A4HSF7 entry or part of it) above
Method: Surface plasmon resonance (SPR) interaction analysis was performed using a Biacore T200 (GE Healthcare, Uppsala, Sweden). TR was immobilized on a CM4 chip by amine coupling according to manufacturer’s instructions (Amine Coupling Kit, GE Healthcare, Uppsala, Sweden). Briefly, the surface of the sensor chip was activated for 7 min using a mixture of 0.1 M N-hydroxy succinimide (NHS) and 0.4 M N-ethyl-N’-[3-dimethyl-aminopropyl] carbodiimide (EDC) then 25 μg/mL of TR in 10 mM sodium acetate (pH 5.0) was injected for 360 s at 10 μl/min, finally residual activated groups on the surface were blocked by a 7-min injection of 1 M ethanolamine (pH 8.5). A reference channel for background subtraction was prepared by activation with EDC/NHS mixture (0.1 M/0.4 M as per ligand immobilization), followed by blocking with 1 M ethanolamine. The binding of the selected hit to the immobilized ligand was evaluated by a multi-cycle kinetic procedure in 50 mM HEPES pH 7.4, 40 mM NaCl, 0.05% Tween-20 supplemented with 2% DMSO (Sigma Aldrich). The analyte was injected for 20 s at 30 μl/min until equilibrium and dissociation monitored for 120 s. A standard curve of DMSO was included for solvent correction. Biomolecular binding events were reported as changes of resonance units (RUs) over time. The data were analysed by the Biacore T200 evaluation software: specific sensorgrams were obtained for the analyte, by subtracting the signals of the reference channel to those of the TR-immobilized one, and corrected for DMSO interference from DMSO standard curve. The binding affinity was evaluated at steady state whereas the kinetic parameters were calculated by a one-phase association and two-phase dissociation model using the Prism software (GraphPad, San Diego, CA, U.S.A.)

TR [6] = target: T3, TR; experiment: Competition assay with TS2 or NADPH; type: biochemical; conditions: 4, 16, 64 μM compound
Method: Competition assays were performed using three test concentrations (4, 16 and 64 μM) for the competing compounds. The reaction buffer and components were mostly identical to those used in the TR assay described above, but 1 nM TR was employed for 5 minutes against a serial dilution of either TS2 in presence of 40 μM NADPH or NADPH in presence of 30 μM TS2. The residual amount of NADPH was measured using the NADPH-Glo kit (Promega, U.S.A.) after 30 min incubation at room temperature as per the manufacturer’s protocol. The luminescent signal was measured using the EnVision plate reader (PerkinElmer, USA). IC50, Vmax, and Km values were calculated using Prism software (GraphPad, San Diego, CA, U.S.A.).
The NADPH concentration for the TS2 dilutions was 40 μM while the TS2 concentration for the NADPH dilutions was 30 μM.

[7] = Solubility in assay buffer; type: physicochemical; conditions: aqueous buffer
TR [8] = target: T3, TR; parameters: method as in PMID 26033467; conditions: read-out: TS2 Km; cited from earlier work
[9] = Fig 5, read-out: IC50 (TR inhibition potency)

For `C[C@@H]1[C@H](O)[C@@H](C)/C=C/C=C/C=C/C=C/C=C/C=C/C=C/[C@H](O[C@@H]2O[C@H](C)[C@@H](O)[C@H](N)[C@@H]2O)C[C@@H]2O[C@](O)(C[C@@H](O)C[C@@H](O)[C@H](O)CC[C@@H](O)C[C@@H](O)CC(=O)O[C@H]1C)C[C@H](O)[C@H]2C(=O)O` [Amphotericin B, reference compound], the IC50 [1] was 0.5 µM.
`CC(=O)OC[C@H]1O[C@@H]([S-])[C@H](OC(C)=O)[C@@H](OC(C)=O)[C@@H]1OC(C)=O.CCP(CC)CC.[Au+]` [Auranofin, reference compound] showed an IC50 (L. infantum TR [2]; dose-response, Fig 3D, read-out: potency, DTNB assay) of 0.154 ± 0.0107 µM and an IC50 (L. infantum TR [3]; dose-response, Fig 3D, read-out: potency, luminescent assay) of 6.6 ± 1.05 µM.
`O=C(N/N=C/c1ccc([N+](=O)[O-])s1)C1CC12CCC2` (stereo not drawn) [Compound 1] showed an IC50 (L. infantum TR [3]; [9]) of 1.76 ± 0.371 µM.
With `CN(C)C(=O)c1ccc(NCCC(=O)c2cc3ccccc3o2)cc1` [Compound 2] the “selectivity for TR with respect to hGR” value [4] was “not selective”, the IC50 [4] was 13.9 ± 3.5 µM and the IC50 (L. infantum TR [3]; [9]) was 13.3 ± 2.69 µM. The IC50 (L. infantum TR [3]; n=3, read-out: TR assay IC50) was 13.3 ± 2.69 µM.
Work on `CCN(CC)CCOC(=O)c1ccc(NCCC(=O)c2ccc([N+](=O)[O-])cc2)cc1` [Compound 3, 2-(Diethylamino)ethyl 4-((3-(4-nitrophenyl)-3-oxopropyl)amino)benzoate] yielded an IC50 (L. infantum TR [2]; read-out: DTNB IC50) of 4 ± 0.9 µM, a Kd (TR [5]; Kd from kslow/kon ratio, kslow/kon) of 22.7 µM and a kon (TR [5]; one-phase association model) of 3510 ± 1.09e+06 M⁻¹ s⁻¹. For the same compound, the Kd (TR [5]; steady state, read-out: steady state calculated Kd) was 28.3 ± 5.12 µM, the kfast (TR [5]; two-phase dissociation model) was 5.88 ± 0.96 s⁻¹ and the kslow (TR [5]; two-phase dissociation model) was 0.08 ± 0.02 s⁻¹. For the same compound, the “selectivity for TR with respect to hGR” value [4] was “selective”, the IC50 [4] was > 85 µM and the promastigote mortality ([1]; 72 h after treatment, up to 100 μM) was 100%. The IC50 [1] was 12.4 ± 1.09 µM, the “competition with NADPH” value (TR [6]; 30 μM TS2) was “competitive for NADPH” and the “effect on TS2 Km” value (TR [6]; 40 μM NADPH) was “did not alter TS2 Km”. The solubility [7] was > 100 µM, the IC50 (L. infantum TR [3]; [9]) was 7.51 ± 2.53 µM and the IC50 (L. infantum TR [3]; n=3, read-out: TR assay IC50) was 7.52 ± 2.53 µM. The IC50 (L. infantum TR [3]; read-out: Luminescence assay IC50 (in vitro potency, TR)) was 7.5 ± 2.5 µM.
In the case of `N[C@@H](CCC(=O)N[C@@H](CS)C(=O)NCC(=O)NCCCCNCCCNC(=O)CNC(=O)[C@H](CS)NC(=O)CC[C@H](N)C(=O)O)C(=O)O` [TS2, N1,N8-bis(glutathionyl)spermidine], the Km (L. infantum TR [2]; DTNB assay, 20 nM TR, 100 μM NADPH, read-out: TS2 Km (apparent)) is given as 3.6 ± 0.5 µM, the Km (TR [8]) is given as 23 ± 1 µM and the Km (L. infantum TR [3]; luminescent assay, 0.5 nM TR, 12.5 μM NADPH, read-out: TS2 Km (apparent)) is given as 13.5 ± 3.8 µM.
